Experimental data: patent US6543181B1, “Fruit fly attractant compositions” (Iowa State University Research Foundation, Inc., priority 2001, dated 2003)

Assays:
[1] = tested on: Drosophila melanogaster antennae; parameters: key to the marks not given beside the values
[2] = tested on: Drosophila melanogaster adult fruit flies; assay: Attraction-trapant behavioral bioassay (cup traps in screen cages); type: in vivo; conditions: for Catches per day (mean ± S.E.): 100-150 flies released
Description: Three different sizes of screen cages (w×h×l: 26 cm×26 cm×30 cm; 48×61×61; and 88×36×46) were used for the trapping experiments. Trapping experiments were carried out either in the laboratories, or in nearby green houses.
The attraction-trapant assay traps were constructed from cylindrical, clear plastic jelly cups (4.0 cm I.D. at top, 3.0 cm I.D. bottom; 2.5 cm high) with a tightly fitting paper lid. The lids were pre-drilled with a hole having a diameter of about 2 mm, which was the only aperture through which volatiles from candidate attractants could emanate, and also the only entrance through which attracted flies could enter the trap chamber. In all experiments, a 1-cm-long, 0.5-cm-diameter piece of cotton dental wick was used as the substrate onto which different compositions of potential attractants were loaded for testing, and then the wick was placed in the bottom of the cup and the lid then sealed in position at the beginning of testing.
Traps containing a series of compositions to be compared were tested in a randomized, complete-block design, with one replicate of a treatment series deployed per cage. The traps were placed in an array with usually approximately 15 cm between traps. If three treatments were to be compared (including control), the array took the form of a triangle. If there were four treatments, then the four trap-cups formed a square.
No glue or toxicant was used inside the traps, and captures depended on the ability of the attractant-trapant composition to both attract the fruit flies as well as retain them in the chamber by keeping them from wandering back to the entrance hole on the lid and exiting through it. During these assays, observations of the fruit flies' behavior were often made, and they could routinely be observed flying slowly around the cage before descending to one of the traps on the floor of the cage, landing on it, and then walking more or less directly to the hole on the lid and entering the trap.
[…] […] During this period the trap positions were rotated at several hour intervals in order to minimize any possible trap position effects.

[3] = Table 3, 10 mg in cup trap, traps checked daily for 5 days
[4] = Table 4, ratios of acetic acid and 2-phenylethanol, total lure 10 mg, no water added, checked daily for 5 days

SMILES	Catches per day (mean ± S.E.) [2, 3]	other results
C=CCc1ccc(OC)c(OC)c1 [1,2-dimethoxy-4-(2-propenyl)-benzene]	–	EAG activity [1]: +++
OCCc1ccccc1 [2-phenylethanol]	3.15 ± 1.63	Catches per day (mean ± S.E.) ([2]; Table 3, 1 mg in cup trap, traps checked daily for 5 days): 0.5 ± 0.29; Catches per day (mean ± S.E.) ([2]; Table 3, 5 mg in cup trap, traps checked daily for 5 days): 1.25 ± 0.63; Catches per day (mean ± S.E.) [2, 4]: 0 ± 0
CC(=O)OCCc1ccccc1 [2-phenylethyl acetate]	1.87 ± 0.81	–
CC(=O)O [Acetic acid]	–	Catches per day (mean ± S.E.) [2, 4]: 3.0 ± 1.08; Trap catches ([2]; Table 13, effect of ethyl acetate, 8 replicates): 0.25 ± 0.16
CCOC(=O)C=Cc1ccccc1 [Ethyl cinnamate]	0.75 ± 0.49	–
CCCCOC(C)=O [butyl acetate]	–	EAG activity [1]: +++
CCOC(=O)c1ccccc1 [ethyl benzoate]	0.25 ± 0.16	–
CCOC(=O)c1ccccc1O [ethyl salicylate]	0.37 ± 0.18	–
CCOC(=O)Cc1ccccc1 [ethylphenyl acetate]	1.5 ± 0.5	–
CC(=O)OCc1ccccc1 [phenylmethyl acetate]	0.5 ± 0.27	–
